The subject of this test is MV-4-11 cells. Put plainly: Gene expression microarray analysis (Affymetrix PrimeView) and GSEA. The test is classed as cell-based, human. Also noted: RFU PODN (11730768_x_at) / Fold change /veh PODN (11730768_x_at) / RFU LINC00158 (11744669_a_at) / Fold change /veh LINC00158 (11744669_a_at) / RFU DUSP10 (11751237_a_at) / Fold change /veh DUSP10 (11751237_a_at) / RFU ID3 (11757404_x_at) / Fold change /veh ID3 (11757404_x_at) / RFU PLEKHG5 (11737974_s_at) / Fold change /veh PLEKHG5 (11737974_s_at) / RFU LRRC4B (11730491_at) / Fold change /veh LRRC4B (11730491_at) / RFU GIMAP4 (11747438_a_at) / Fold change /veh GIMAP4 (11747438_a_at) / RFU KRT8 (11758183_x_at) / Fold change /veh KRT8 (11758183_x_at) / RFU CNN1 (11734310_a_at) / Fold change /veh CNN1 (11734310_a_at) / RFU VPS37D (11726825_at) / Fold change /veh VPS37D (11726825_at) / RFU C10orf10 (11716522_x_at) / Fold change /veh C10orf10 (11716522_x_at) / RFU KIR2DL2 /// KIR2DL4 /// KIR2DL5A /// KIR2DL5B /// KIR2DS1 /// KIR2DS2 /// KIR2DS3 /// KIR2DS4 /// KIR3DL3 /// KIR3DL3 /// KIR3DS1 (11738374_at) / Fold change /veh KIR2DL2 /// KIR2DL4 /// KIR2DL5A /// KIR2DL5B /// KIR2DS1 /// KIR2DS2 /// KIR2DS3 /// KIR2DS4 /// KIR3DL3 /// KIR3DL3 /// KIR3DS1 (11738374_at) / RFU C1QL1 (11718748_at) / Fold change /veh C1QL1 (11718748_at) / RFU TMPRSS4 (11747572_a_at) / Fold change /veh TMPRSS4 (11747572_a_at) / RFU HAMP (11756126_x_at) / Fold change /veh HAMP (11756126_x_at) / RFU RNFT2 (11725882_a_at) / Fold change /veh RNFT2 (11725882_a_at) / RFU NR4A2 (11747474_a_at) / Fold change /veh NR4A2 (11747474_a_at) / RFU ABCC12 (11746883_a_at) / Fold change /veh ABCC12 (11746883_a_at) / RFU TMEM136 (11760407_x_at) / Fold change /veh TMEM136 (11760407_x_at) / RFU CLDN22 /// WWC2 (11732394_at) / Fold change /veh CLDN22 /// WWC2 (11732394_at) / RFU HLA-DPB1 (11760878_x_at) / Fold change /veh HLA-DPB1 (11760878_x_at) / RFU SPINT1 (11716480_a_at) / Fold change /veh SPINT1 (11716480_a_at) / RFU GAP43 (11754022_s_at) / Fold change /veh GAP43 (11754022_s_at) / RFU A4GNT (11735810_at) / Fold change /veh A4GNT (11735810_at) / RFU PRB3 (11715151_x_at) / Fold change /veh PRB3 (11715151_x_at) / RFU TUBB4B (11761932_at) / Fold change /veh TUBB4B (11761932_at) / RFU CAPN14 (11732068_a_at) / Fold change /veh CAPN14 (11732068_a_at) / RFU TMCC2 (11721928_a_at) / Fold change /veh TMCC2 (11721928_a_at) / RFU IRGQ (11745062_a_at) / Fold change /veh IRGQ (11745062_a_at) / RFU FAM174B (11720279_a_at) / Fold change /veh FAM174B (11720279_a_at) / RFU TMPRSS4 (11748680_a_at) / Fold change /veh TMPRSS4 (11748680_a_at) / RFU FAM212B (11763350_a_at) / Fold change /veh FAM212B (11763350_a_at) / RFU PLEKHG5 (11743358_a_at) / Fold change /veh PLEKHG5 (11743358_a_at) / RFU ZSCAN30 (11745921_a_at) / Fold change /veh ZSCAN30 (11745921_a_at) / RFU CMKLR1 (11741424_a_at) / Fold change /veh CMKLR1 (11741424_a_at) / RFU LOC101060620 /// MAPK8IP1 (11723275_at) / Fold change /veh LOC101060620 /// MAPK8IP1 (11723275_at) / RFU SPTSSB (11747773_x_at) / Fold change /veh SPTSSB (11747773_x_at) / RFU PRSS12 (11739890_at) / Fold change /veh PRSS12 (11739890_at) / RFU BIN1 (11741810_x_at) / Fold change /veh BIN1 (11741810_x_at) / RFU WNT11 (11732464_a_at) / Fold change /veh WNT11 (11732464_a_at) / RFU C10orf10 (11716521_a_at) / Fold change /veh C10orf10 (11716521_a_at) / RFU C5orf56 (11738089_at) / Fold change /veh C5orf56 (11738089_at) / RFU CYB561 (11721691_x_at) / Fold change /veh CYB561 (11721691_x_at) / RFU ANKRD19P (11752326_a_at) / Fold change /veh ANKRD19P (11752326_a_at) / RFU OR2T12 /// OR2T33 /// OR2T8 (11738714_s_at) / Fold change /veh OR2T12 /// OR2T33 /// OR2T8 (11738714_s_at) / RFU VCAN (11748164_a_at) / Fold change /veh VCAN (11748164_a_at) / RFU JSRP1 (11732532_at) / Fold change /veh JSRP1 (11732532_at) / RFU KRTAP10-11 (11738290_x_at) / Fold change /veh KRTAP10-11 (11738290_x_at) / RFU MYO3A (11730013_a_at) / Fold change /veh MYO3A (11730013_a_at) / RFU EBF3 (11725865_a_at) / Fold change /veh EBF3 (11725865_a_at) / RFU CAMK2N1 (11719241_x_at) / Fold change /veh CAMK2N1 (11719241_x_at) / RFU C5orf56 (11738088_a_at) / Fold change /veh C5orf56 (11738088_a_at) / RFU OLFML3 (11715873_a_at) / Fold change /veh OLFML3 (11715873_a_at) / RFU LOC100653217 /// NTM (11731650_a_at) / Fold change /veh LOC100653217 /// NTM (11731650_a_at) / RFU MAPK11 (11762145_a_at) / Fold change /veh MAPK11 (11762145_a_at) / RFU FIZ1 (11724087_x_at) / Fold change /veh FIZ1 (11724087_x_at) / RFU OASL (11726364_x_at) / Fold change /veh OASL (11726364_x_at) / RFU SOX15 (11748057_x_at) / Fold change /veh SOX15 (11748057_x_at) / RFU CD79A (11719716_a_at) / Fold change /veh CD79A (11719716_a_at) / RFU HIST1H1D (11736915_at) / Fold change /veh HIST1H1D (11736915_at) / RFU CASKIN2 (11723855_a_at) / Fold change /veh CASKIN2 (11723855_a_at) / RFU LOC730098 (11760151_x_at) / Fold change /veh LOC730098 (11760151_x_at) / RFU OR4N2 (11742367_at) / Fold change /veh OR4N2 (11742367_at) / RFU PRRT2 (11749266_a_at) / Fold change /veh PRRT2 (11749266_a_at) / RFU SNX32 (11753110_a_at) / Fold change /veh SNX32 (11753110_a_at) / RFU CDHR5 (11726645_a_at) / Fold change /veh CDHR5 (11726645_a_at) / RFU RCAN1 (11760418_a_at) / Fold change /veh RCAN1 (11760418_a_at) / RFU FAM167A (11723789_a_at) / Fold change /veh FAM167A (11723789_a_at) / RFU FAM26E (11764081_at) / Fold change /veh FAM26E (11764081_at) / RFU ISYNA1 (11749810_s_at) / Fold change /veh ISYNA1 (11749810_s_at) / RFU ACY1 (11761880_at) / Fold change /veh ACY1 (11761880_at) / RFU 11764098_at / Fold change /veh 11764098_at / RFU SAMD14 (11745864_x_at) / Fold change /veh SAMD14 (11745864_x_at) / RFU NPB (11741838_a_at) / Fold change /veh NPB (11741838_a_at) / RFU TMPRSS6 (11731388_a_at) / Fold change /veh TMPRSS6 (11731388_a_at) / RFU KRTAP10-2 (11738614_at) / Fold change /veh KRTAP10-2 (11738614_at) / RFU ARHGAP8 /// PRR5-ARHGAP8 (11727945_x_at) / Fold change /veh ARHGAP8 /// PRR5-ARHGAP8 (11727945_x_at) / RFU KRTAP5-7 /// NADSYN1 (11734609_at) / Fold change /veh KRTAP5-7 /// NADSYN1 (11734609_at) / RFU RASL12 (11751679_a_at) / Fold change /veh RASL12 (11751679_a_at) / RFU CDKN2B (11736163_a_at) / Fold change /veh CDKN2B (11736163_a_at) / RFU PRF1 (11729649_at) / Fold change /veh PRF1 (11729649_at) / RFU, ZNF638 /// ZNF638-IT1 / Fold change vs veh, ZNF638 /// ZNF638-IT1 / RFU, PANK3 / Fold change vs veh, PANK3 / RFU, SH3YL1 / Fold change vs veh, SH3YL1 / RFU, ZEB2 / Fold change vs veh, ZEB2 / RFU, NRIP1 / Fold change vs veh, NRIP1 / RFU, PTTG1IP / Fold change vs veh, PTTG1IP / RFU, CAPN2 / Fold change vs veh, CAPN2 / RFU, MED14 / Fold change vs veh, MED14 / RFU, SNORA58 / Fold change vs veh, SNORA58 / RFU, C1orf63 / Fold change vs veh, C1orf63 / RFU, LRRFIP1 / Fold change vs veh, LRRFIP1 / RFU, NDUFAF7 / Fold change vs veh, NDUFAF7 / RFU, SLC12A2 / Fold change vs veh, SLC12A2 / RFU, IBTK / Fold change vs veh, IBTK / RFU, ESF1 / Fold change vs veh, ESF1 / Fold change vs veh, TMEM50B / RFU, TAOK1 / Fold change vs veh, TAOK1 / RFU, ACBD3 / Fold change vs veh, ACBD3 / RFU, TMA16 / Fold change vs veh, TMA16 / RFU, RWDD3 / Fold change vs veh, RWDD3 / RFU, BCAT1 / Fold change vs veh, BCAT1 / RFU, EDEM3 / Fold change vs veh, EDEM3 / RFU, TMEM33 / Fold change vs veh, TMEM33 / RFU, WDR75 / Fold change vs veh, WDR75 / RFU, AHCTF1 / Fold change vs veh, AHCTF1 / RFU, TFRC / Fold change vs veh, TFRC / RFU, ZDHHC17 / Fold change vs veh, ZDHHC17 / RFU, NOM1 / Fold change vs veh, NOM1 / RFU, ARL8B / Fold change vs veh, ARL8B / RFU, ZBTB11 / Fold change vs veh, ZBTB11 / RFU, TAMM41 / Fold change vs veh, TAMM41 / RFU, KIAA1704 /// LOC100996395 / Fold change vs veh, KIAA1704 /// LOC100996395 / RFU, ING1 / Fold change vs veh, ING1 / RFU, TRMT61B / Fold change vs veh, TRMT61B / RFU, FUBP3 / Fold change vs veh, FUBP3 / RFU, TP53 / Fold change vs veh, TP53 / RFU, TNKS2 / Fold change vs veh, TNKS2 / RFU, ZFP14 / Fold change vs veh, ZFP14 / RFU, ACTR2 / Fold change vs veh, ACTR2 / RFU, PPP3R1 / Fold change vs veh, PPP3R1 / RFU, PIK3R1 / Fold change vs veh, PIK3R1 / RFU, HNRNPA1 / Fold change vs veh, HNRNPA1 / RFU, RNF170 / Fold change vs veh, RNF170 / RFU, ZNF28 / Fold change vs veh, ZNF28 / RFU, RNGTT / Fold change vs veh, RNGTT / RFU, OGT / Fold change vs veh, OGT / RFU, BRD1 / Fold change vs veh, BRD1 / RFU, MARS / Fold change vs veh, MARS / RFU, ZNF655 / Fold change vs veh, ZNF655 / RFU, FAHD1 / Fold change vs veh, FAHD1 / RFU, BDP1 / Fold change vs veh, BDP1 / RFU, LRRCC1 / Fold change vs veh, LRRCC1 / RFU, ARID1A / Fold change vs veh, ARID1A / RFU, ZNF146 / Fold change vs veh, ZNF146 / RFU, ZNF330 / Fold change vs veh, ZNF330 / RFU, GPN3 / Fold change vs veh, GPN3 / RFU, C9orf123 / Fold change vs veh, C9orf123 / RFU, N4BP2L2 / Fold change vs veh, N4BP2L2 / RFU, ARFIP1 / Fold change vs veh, ARFIP1 / RFU, FAM179B / Fold change vs veh, FAM179B / RFU, BCL10 / Fold change vs veh, BCL10 / RFU, UHRF1BP1L / Fold change vs veh, UHRF1BP1L / RFU, BET1 / Fold change vs veh, BET1 / RFU, CNOT2 / Fold change vs veh, CNOT2 / RFU, ZNF268 / Fold change vs veh, ZNF268 / Fold change vs veh, ZNF507 / RFU, DGCR2 / Fold change vs veh, DGCR2 / RFU, WDSUB1 / Fold change vs veh, WDSUB1 / Fold change vs veh, HSP90B1 /// MIR3652 / RFU, ADSS / Fold change vs veh, ADSS / RFU, GK / Fold change vs veh, GK / RFU, ZNF148 / Fold change vs veh, ZNF148 / RFU, TAF9 / Fold change vs veh, TAF9 / RFU, SLC1A5 / Fold change vs veh, SLC1A5 / RFU, SLMO2 / Fold change vs veh, SLMO2 / RFU, ABCC4 / Fold change vs veh, ABCC4 / RFU, LOC101060439 /// RAP1B / Fold change vs veh, LOC101060439 /// RAP1B / RFU, RFX7 / Fold change vs veh, RFX7 / RFU, GTPBP10 / Fold change vs veh, GTPBP10 / RFU, CNEP1R1 / Fold change vs veh, CNEP1R1 / RFU, BIVM-ERCC5 /// ERCC5 / Fold change vs veh, BIVM-ERCC5 /// ERCC5 / RFU, ILF3 / Fold change vs veh, ILF3 / RFU 11762660_at / Fold change /veh 11762660_at / RFU VCAN (11757783_s_at) / Fold change /veh VCAN (11757783_s_at) / RFU DDX43 (11728927_at) / Fold change /veh DDX43 (11728927_at) / RFU KRT8 (11758188_x_at) / Fold change /veh KRT8 (11758188_x_at) / RFU NKD1 (11759106_at) / Fold change /veh NKD1 (11759106_at) / RFU SRD5A1 (11742802_a_at) / Fold change /veh SRD5A1 (11742802_a_at) / RFU TPSAB1 /// TPSB2 (11721975_s_at) / Fold change /veh TPSAB1 /// TPSB2 (11721975_s_at) / RFU GSTM3 (11746129_a_at) / Fold change /veh GSTM3 (11746129_a_at) / RFU IL23R (11737362_x_at) / Fold change /veh IL23R (11737362_x_at) / RFU TMEM51 (11727254_a_at) / Fold change /veh TMEM51 (11727254_a_at) / RFU PIWIL2 (11732686_x_at) / Fold change /veh PIWIL2 (11732686_x_at) / RFU ORM1 (11744905_x_at) / Fold change /veh ORM1 (11744905_x_at) / RFU CCDC152 (11743942_at) / Fold change /veh CCDC152 (11743942_at) / RFU ECM1 (11717891_a_at) / Fold change /veh ECM1 (11717891_a_at) / RFU IL23R (11748794_a_at) / Fold change /veh IL23R (11748794_a_at) / RFU TNFAIP8L3 (11732012_x_at) / Fold change /veh TNFAIP8L3 (11732012_x_at) / RFU MBOAT4 (11741988_at) / Fold change /veh MBOAT4 (11741988_at) / RFU 11764193_at / Fold change /veh 11764193_at / RFU TMEM53 (11763286_at) / Fold change /veh TMEM53 (11763286_at) / RFU MAGEB2 (11727129_at) / Fold change /veh MAGEB2 (11727129_at) / RFU TMEM200A (11744735_a_at) / Fold change /veh TMEM200A (11744735_a_at) / RFU CCDC152 (11751479_a_at) / Fold change /veh CCDC152 (11751479_a_at) / RFU FAM211A (11726209_a_at) / Fold change /veh FAM211A (11726209_a_at) / RFU RGS16 (11746705_a_at) / Fold change /veh RGS16 (11746705_a_at) / RFU VCAN (11755009_s_at) / Fold change /veh VCAN (11755009_s_at) / RFU RHOB (11743442_s_at) / Fold change /veh RHOB (11743442_s_at) / RFU RGS16 (11720943_a_at) / Fold change /veh RGS16 (11720943_a_at) / RFU RGS16 (11720944_at) / Fold change /veh RGS16 (11720944_at) / RFU, VPS4B / Fold change vs veh, VPS4B / RFU, CREB1 / Fold change vs veh, CREB1 / RFU, DNAJC13 / Fold change vs veh, DNAJC13 / RFU, GNAQ / Fold change vs veh, GNAQ / RFU, CDK5R1 / Fold change vs veh, CDK5R1 / RFU, ZRANB3 / Fold change vs veh, ZRANB3 / RFU, CUL4A / Fold change vs veh, CUL4A / RFU, CCNY / Fold change vs veh, CCNY / RFU, UFL1 / Fold change vs veh, UFL1 / RFU, COG3 / Fold change vs veh, COG3 / RFU, DIAPH2 / Fold change vs veh, DIAPH2 / RFU, SKA2 / Fold change vs veh, SKA2 / RFU, AFF3 / Fold change vs veh, AFF3 / RFU, LMF1 / Fold change vs veh, LMF1 / RFU, IPO11 / Fold change vs veh, IPO11 / RFU, DFFB / Fold change vs veh, DFFB / RFU, FOXP1 / Fold change vs veh, FOXP1 / RFU, CARD8 / Fold change vs veh, CARD8 / RFU, STRN3 / Fold change vs veh, STRN3 / RFU, ADK / Fold change vs veh, ADK / RFU, RASSF2 / Fold change vs veh, RASSF2 / RFU, WIPF1 / Fold change vs veh, WIPF1 / RFU, LARP1B / Fold change vs veh, LARP1B / RFU, RASA1 / Fold change vs veh, RASA1 / RFU, RB1 / Fold change vs veh, RB1 / RFU, PPFIA1 / Fold change vs veh, PPFIA1 / RFU, MAT2A / Fold change vs veh, MAT2A / RFU, CCT5 / Fold change vs veh, CCT5 / RFU, WDR92 / Fold change vs veh, WDR92 / RFU, CUX1 / Fold change vs veh, CUX1 / RFU, TTC7A / Fold change vs veh, TTC7A / RFU, TMEM135 / Fold change vs veh, TMEM135 / RFU, DEPTOR / Fold change vs veh, DEPTOR / RFU, CPM / Fold change vs veh, CPM / RFU, DNAJB6 / Fold change vs veh, DNAJB6 / RFU, CACNA2D3 / Fold change vs veh, CACNA2D3 / RFU, DTX4 / Fold change vs veh, DTX4 / RFU, TFCP2 / Fold change vs veh, TFCP2 / RFU, GMCL1 /// GMCL1P1 / Fold change vs veh, GMCL1 /// GMCL1P1 / RFU, AEBP2 / Fold change vs veh, AEBP2 / RFU, SNHG1 /// SNORD22 /// SNORD25 /// SNORD26 /// SNORD27 /// SNORD28 /// SNORD29 /// SNORD31 / Fold change vs veh, SNHG1 /// SNORD22 /// SNORD25 /// SNORD26 /// SNORD27 /// SNORD28 /// SNORD29 /// SNORD31 / Fold change (Aza/veh), C12orf56 (ProbeSet 11735607_a_at) / Fold change (ACY-1035/veh), C12orf56 (ProbeSet 11735607_a_at) / Fold change (Aza/veh), FGFR1OP (ProbeSet 11751329_s_at) / Fold change (ACY-1035/veh), FGFR1OP (ProbeSet 11751329_s_at) / Fold change (Aza/veh), VPS36 (ProbeSet 11739960_a_at) / Fold change (ACY-1035/veh), VPS36 (ProbeSet 11739960_a_at) / RFU SYPL1 (11715823_x_at) / Fold change /veh SYPL1 (11715823_x_at) / RFU IGFBP7 (11715501_s_at) / Fold change /veh IGFBP7 (11715501_s_at) / RFU REEP3 (11722064_at) / Fold change /veh REEP3 (11722064_at) / RFU IGLL1 (11728026_x_at) / Fold change /veh IGLL1 (11728026_x_at): dose or concentration left out as unconfirmed. Particulars: ProbeSet 11728271_at; LIST B.

Structures are written as SMILES.

Take `Nc1ncn([C@@H]2O[C@H](CO)[C@@H](O)[C@H]2O)c(=O)n1` [azacitidine]: the “RFU, ZNF330” value was found to be 711.81 RFU.

These data come from publication PMC5218480 (PLoS ONE, 2017).
